Experimental data published in the supplement of paper PMC10307832.

Experiments:
Experiment in all cases: relative viability (nuclei count vs DMSO), 5 days (fraction); higher = more cells survive
LCLC-103H = tested on: LCLC-103H
Outline: (§1)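 Relative viability divides the nuclei count in treated wells by that in vehicle wells. Lung cancer cell lines were seeded in 1536-well plates, dosed by pin tool the next day, and fixed and stained after 5 days in one step with final 0.05% Triton X-100, 1% formaldehyde and 1 ug/ml Hoechst. Dosing was a single drug or a fixed anchor-drug dose plus five library-drug doses (not always all listed) in √10 steps, and values are medians of duplicate plates imaged at 4×.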

HCC-15 = tested on: HCC-15
Outline: as §1

PC-14 = tested on: PC-14
Outline: as §1

NCI-H1437 = tested on: NCI-H1437
Outline: as §1

H3255 = tested on: H3255
Outline: as §1

LXF-289 = tested on: LXF-289
Outline: as §1

HCC-366 = tested on: HCC-366
Outline: as §1

NCI-H2085 = tested on: NCI-H2085
Outline: as §1

NCI-H1666 = tested on: NCI-H1666
Outline: as §1

ABC-1 = tested on: ABC-1
Outline: as §1

HCC-827 = tested on: HCC-827
Outline: as §1

NCI-H1975 = tested on: NCI-H1975
Outline: as §1

PC-3 [JPC-3] = tested on: PC-3 [JPC-3]
Outline: as §1

NCI-H23 = tested on: NCI-H23
Outline: as §1

LC-2-ad = tested on: LC-2-ad
Outline: as §1

NCI-H2087 = tested on: NCI-H2087
Outline: as §1

NCI-H2342 = tested on: NCI-H2342
Outline: as §1

Cc1cn(-c2cc(NC(=O)c3ccc(C)c(Nc4nccc(-c5cccnc5)n4)c3)cc(C(F)(F)F)c2)cn1 [Nilotinib] + NC(=O)Nc1cc(-c2cccc(F)c2)sc1C(=O)N[C@H]1CCCNC1 [AZD7762] (partner 0.2 µM)
relative viability (LCLC-103H; first compound 0.001 µM): 0.861 | relative viability (LCLC-103H; first compound 0.003162 µM): 0.883 | relative viability (LCLC-103H; first compound 0.01 µM): 0.845 | relative viability (LCLC-103H; first compound 0.03162 µM): 0.705 | relative viability (LCLC-103H; first compound 0.1 µM): 0.477 | relative viability (HCC-15; first compound 0.001 µM): 1.1 | relative viability (HCC-15; first compound 0.003162 µM): 1.28 | relative viability (HCC-15; first compound 0.01 µM): 1.39 | relative viability (HCC-15; first compound 0.03162 µM): 1.25 | relative viability (HCC-15; first compound 0.1 µM): 1.19 | relative viability (PC-14; first compound 0.001 µM): 0.359 | relative viability (PC-14; first compound 0.003162 µM): 0.285 | relative viability (PC-14; first compound 0.01 µM): 0.399 | relative viability (PC-14; first compound 0.03162 µM): 0.305 | relative viability (NCI-H1437; first compound 0.001 µM): 1.16 | relative viability (NCI-H1437; first compound 0.003162 µM): 0.888 | relative viability (NCI-H1437; first compound 0.01 µM): 1.12 | relative viability (NCI-H1437; first compound 0.03162 µM): 0.899 | relative viability (NCI-H1437; first compound 0.1 µM): 1.1 | relative viability (H3255; first compound 0.001 µM): 0.827 | relative viability (H3255; first compound 0.003162 µM): 0.65 | relative viability (H3255; first compound 0.01 µM): 0.908 | relative viability (H3255; first compound 0.03162 µM): 0.811 | relative viability (H3255; first compound 0.1 µM): 0.733 | relative viability (LXF-289; first compound 0.001 µM): 1.03 | relative viability (LXF-289; first compound 0.003162 µM): 1.2 | relative viability (LXF-289; first compound 0.01 µM): 1.21 | relative viability (LXF-289; first compound 0.03162 µM): 1.08 | relative viability (LXF-289; first compound 0.1 µM): 0.642 | relative viability (HCC-366; first compound 0.001 µM): 0.18 | relative viability (HCC-366; first compound 0.003162 µM): 0.231 | relative viability (HCC-366; first compound 0.01 µM): 0.264 | relative viability (HCC-366; first compound 0.03162 µM): 0.204 | relative viability (HCC-366; first compound 0.1 µM): 0.115 | relative viability (NCI-H2085; first compound 0.001 µM): 0.978 | relative viability (NCI-H2085; first compound 0.003162 µM): 0.942 | relative viability (NCI-H2085; first compound 0.01 µM): 1.03 | relative viability (NCI-H2085; first compound 0.03162 µM): 0.793 | relative viability (NCI-H2085; first compound 0.1 µM): 0.527 | relative viability (NCI-H1666; first compound 0.001 µM): 0.78 | relative viability (NCI-H1666; first compound 0.01 µM): 0.855 | relative viability (NCI-H1666; first compound 0.03162 µM): 0.74 | relative viability (NCI-H1666; first compound 0.1 µM): 0.724 | relative viability (ABC-1; first compound 0.001 µM): 0.667 | relative viability (ABC-1; first compound 0.003162 µM): 0.73 | relative viability (ABC-1; first compound 0.01 µM): 0.803 | relative viability (ABC-1; first compound 0.03162 µM): 0.787 | relative viability (ABC-1; first compound 0.1 µM): 0.387 | relative viability (HCC-827; first compound 0.001 µM): 0.172 | relative viability (HCC-827; first compound 0.003162 µM): 0.158 | relative viability (HCC-827; first compound 0.03162 µM): 0.177 | relative viability (HCC-827; first compound 0.1 µM): 0.204 | relative viability (NCI-H1975; first compound 0.001 µM): 0.622 | relative viability (NCI-H1975; first compound 0.003162 µM): 0.571 | relative viability (NCI-H1975; first compound 0.01 µM): 0.744 | relative viability (NCI-H1975; first compound 0.03162 µM): 0.613 | relative viability (NCI-H1975; first compound 0.1 µM): 0.667 | relative viability (PC-3 [JPC-3]; first compound 0.001 µM): 0.8 | relative viability (PC-3 [JPC-3]; first compound 0.01 µM): 0.737 | relative viability (PC-3 [JPC-3]; first compound 0.03162 µM): 0.749 | relative viability (PC-3 [JPC-3]; first compound 0.1 µM): 0.527 | relative viability (NCI-H23; first compound 0.001 µM): 0.186 | relative viability (NCI-H23; first compound 0.003162 µM): 0.221 | relative viability (NCI-H23; first compound 0.01 µM): 0.154 | relative viability (NCI-H23; first compound 0.03162 µM): 0.152 | relative viability (NCI-H23; first compound 0.1 µM): 0.122 | relative viability (LC-2-ad; first compound 0.001 µM): 0.855 | relative viability (LC-2-ad; first compound 0.003162 µM): 1.01 | relative viability (LC-2-ad; first compound 0.01 µM): 1.02 | relative viability (LC-2-ad; first compound 0.03162 µM): 0.748 | relative viability (LC-2-ad; first compound 0.1 µM): 0.377 | relative viability (NCI-H2087; first compound 0.001 µM): 0.828 | relative viability (NCI-H2087; first compound 0.003162 µM): 1.58 | relative viability (NCI-H2087; first compound 0.01 µM): 1.98 | relative viability (NCI-H2087; first compound 0.03162 µM): 0.86 | relative viability (NCI-H2087; first compound 0.1 µM): 0.893 | relative viability (NCI-H2342; first compound 0.001 µM): 0.425 | relative viability (NCI-H2342; first compound 0.003162 µM): 0.315 | relative viability (NCI-H2342; first compound 0.01 µM): 0.411 | relative viability (NCI-H2342; first compound 0.03162 µM): 0.463 | relative viability (NCI-H2342; first compound 0.1 µM): 0.427
